Data: publication PMC6728359, “Crystal structure and chemical inhibition of essential schistosome host-interactive virulence factor carbonic anhydrase SmCA” (Communications Biology, 2019)
Where two headings read alike, the source gives them in different places.

Columns and labels:
[1] = target: rSmCA (recombinant SmCA, α-carbonic anhydrase) (Schistosoma mansoni, UniProt A0A3Q0KSG2); assay: biochemical; format: biochemical
[2] = target: recombinant human isoform hCA I; settings: cited from earlier work
[3] = target: recombinant human isoform hCA II; settings: cited from earlier work

Sequence of rSmCA (recombinant SmCA, α-carbonic anhydrase) (A0A3Q0KSG2 21-298 limits assumed): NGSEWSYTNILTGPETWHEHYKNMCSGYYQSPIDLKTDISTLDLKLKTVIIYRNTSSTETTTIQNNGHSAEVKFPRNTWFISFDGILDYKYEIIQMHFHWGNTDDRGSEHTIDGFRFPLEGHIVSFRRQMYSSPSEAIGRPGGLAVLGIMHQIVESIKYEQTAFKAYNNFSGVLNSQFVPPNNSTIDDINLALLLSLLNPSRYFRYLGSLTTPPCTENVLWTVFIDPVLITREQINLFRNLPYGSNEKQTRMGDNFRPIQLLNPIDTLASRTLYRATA

Row | Compound | Ki ([1]; read-out: Ki SmCA) [mM] | Ki [2] [mM] | also measured
1 | N#CO [CNO^−, cyanate] | 4.18 |  | 
2 | [O]=[Ru](=[O])(=[O])=[O] [RuO4^−] | 2.07 |  | 
3 | [N-]=[N+]=[N-] [N3^−, azide] | 2.43 |  | 
4 | Cc1onc(-c2ccccc2)c1-c1ccc(S(N)(=O)=O)cc1 [VLX, valdecoxib] |  |  | Ki [1]: 0.000431 mM
5 | NS(=O)(=O)c1cc2c(cc1Cl)NCNS2(=O)=O [HCT, hydrochlorothiazide] |  |  | Ki [1]: 0.000399 mM
6 | S [HS^−, hydrosulfide] | 5.96 | 0.0006 | 
7 | N#C[SeH] [SeCN^−] | 2.16 | 0.085 | 
8 | CC(=O)/N=c1/sc(S(N)(=O)=O)nn1C [MZA, methazolamide] |  |  | Ki [1]: 3.89e-05 mM
9 | CF3SO3^− | 5.62 |  | 
10 | O=S(O)O [HSO3^−] | > 100 | 18 | 
11 | CCN(CC)C(=S)S [Et2NCS2^−] | 0.59 | 0.0008 | Ki [3]: 0.0031 mM
12 | [O-][Cl+3]([O-])([O-])O [ClO4^−, perchlorate] | > 100 |  | 
13 | NS(=O)(=O)c1ccc(S(=O)(=O)Nc2cccc3c(Cl)c[nH]c23)cc1 [IND, indisulam] |  |  | Ki [1]: 3.65e-05 mM
14 | O=S(=O)(O)F [FSO3^−] | 6.02 |  | 
15 | S2O8^2− | 7.85 |  | 
16 | CS3^2− | 6.16 | 0.0087 | 
17 | N#CS [SCN−, thiocyanate] | 3.15 |  | 
18 | O=C(O)O [HCO3−] | 5.1 |  | 
19 | [O]=[Sn]([OH])[OH] [SnO3^2−] | 4.11 |  | 

Row | Compound | Ki ([1]; read-out: Ki SmCA) [mM] | Ki [2] [mM] | also measured
20 | O=C1NS(=O)(=O)c2ccccc21 [SAC, saccharin] |  |  | Ki [1]: > 0.05 mM; Ki ([2]; read-out: Ki hCAI): 0.0185 mM
21 | O=[Se](=O)(O)O [SeO4^2−] | 6.33 |  | 
22 | OB(O)c1ccccc1 [Ph-B(OH) 2, phenylboronic acid] |  | 58.6 | Ki [1]: 0.02 mM; higher affinity for SmCA versus human isoforms hCA I or hCA II [1]: > 1000 fold
23 | [Br-].[K+] [Br−, bromide] | 9.35 | 4 | Ki [3]: 63 mM
24 | P2O7^4− | > 100 | 25.8 | 
25 | NS(=O)(=O)Cc1noc2ccccc12 [ZNS, zonisamide] |  |  | Ki [1]: 0.000937 mM
26 | NS(=O)(=O)c1nnc(NS(=O)(=O)c2ccccc2)s1 [BZA, benzolamide] |  |  | Ki [1]: 3.41e-05 mM
27 | SO4^2− | 6.86 |  | 
28 | CC1(C)O[C@@H]2[C@@H](CO[C@@]3(COS(N)(=O)=O)OC(C)(C)O[C@@H]23)O1 [TPM, topiramate] |  |  | Ki [1]: 0.000568 mM; Ki ([3]; read-out: Ki hCAII): 1e-05 mM
29 | OsO5^2− | 7.55 |  | 
30 | CCN[C@H]1CN(CCCOC)S(=O)(=O)c2sc(S(N)(=O)=O)cc21 [BRZ, brinzolamide] |  |  | Ki [1]: 4.66e-05 mM
31 | NS(=O)(=O)c1ccc(N2CCCCS2(=O)=O)cc1 [SLT, sulthiame] |  |  | Ki [1]: 0.00356 mM
32 | [O]=[Re](=[O])(=[O])[OH] [ReO4^−] | 8.75 |  | 
33 | NS(N)(=O)=O [H 2 NSO 2 NH 2, sulfamide] | 0.007 |  | greater potency over SmCA versus hCA I [1]: 44 fold; greater potency over SmCA versus hCA II [1]: 161 fold
34 | O=[As](O)(O)c1ccccc1 [Ph-AsO 3 H 2, phenylarsonic acid] |  | 31.7 | Ki [3]: 49.2 mM
35 | F [F^−, fluoride] | 6.44 |  | 
36 | I [I^−, iodide] | 5.11 | 0.3 | 
37 | O=[N+]([O-])O [NO3−, nitrate] | 7.87 | 7 | 
38 | O=[Te](=O)(O)O [TeO4^2−] | > 100 | 0.66 | 
